In the experiment the target is T1, rat ASIC1a (Rattus norvegicus, UniProt P55926).
T1 construct: expressed in transfected cells; host or cells: Xenopus laevis oocytes (injected)
T1 sequence (P55926 1-526): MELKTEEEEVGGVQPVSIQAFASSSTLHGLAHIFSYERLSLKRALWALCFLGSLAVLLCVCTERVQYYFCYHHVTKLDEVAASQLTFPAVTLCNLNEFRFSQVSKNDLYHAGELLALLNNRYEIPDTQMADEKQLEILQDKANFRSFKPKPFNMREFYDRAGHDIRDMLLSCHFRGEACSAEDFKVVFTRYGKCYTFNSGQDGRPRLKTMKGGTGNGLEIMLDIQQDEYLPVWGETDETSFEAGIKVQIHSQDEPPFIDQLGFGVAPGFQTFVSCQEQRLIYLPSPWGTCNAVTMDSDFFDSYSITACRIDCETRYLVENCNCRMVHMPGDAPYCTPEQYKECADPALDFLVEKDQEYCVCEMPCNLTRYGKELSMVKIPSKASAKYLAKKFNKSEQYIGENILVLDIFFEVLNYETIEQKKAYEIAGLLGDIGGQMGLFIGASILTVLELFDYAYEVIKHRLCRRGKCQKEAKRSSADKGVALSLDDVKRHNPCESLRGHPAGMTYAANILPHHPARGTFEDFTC
Nature of the experiment: ASIC1a steady-state desensitization (SSD) by rNS preconditioning. The class given is cell-based. The note with it: preconditioning with 0.04 to 0.1 mM rNS, then 1 mM rNS stimulus; n = 4. As to the method: Oocytes expressed rASIC1a, rASIC1b, rASIC2a, and rASIC3 homomeric channels were prepared as described. Injected oocytes were kept for two–three days at 19 °C and then for up to seven days at 15 °C in ND-96 medium supplemented with gentamycin (50 μg·mL^−1) and containing (in mM): 96 NaCl, 2 KCl, 1.8 CaCl2, 1 MgCl2, and 10 HEPES titrated to pH 7.4 with NaOH. Electrophysiological recordings were performed using the GeneClamp500 amplifier (Axon Instruments, Inverurie, UK) at a holding potential of -50 mV. The data were filtered at 20 Hz and digitized at 100 Hz using the L780 AD converter (L-Card, Moscow, Russia). Microelectrodes were filled with 3 M KCl. […]
Figure 2 Effects of nocistatin on rat ASIC1a channels. […] Calculated parameters of EC50 for non-discriminated sites, or EC501 for “cooperative” sites and EC502 for single site, are shown as a result of experimental data mathematical processing. The peak current amplitude is normalized to the maximum amplitude (Imax) calculated for each oocyte by individual fitting. […] Two independent dose-response curves were measured for the 1st (blue line) and the 2nd (green line) peak components of the current. Calculated parameters of IC50 are shown as a result of experimental data mathematical processing by F3(x) logistic equation (see Materials and Methods for detailed description). […]

Ends that are not written are not given here.

Consider “MPRVRSVVQARDAEPEADAEPVADEADEVEQKQLQ [rNS]”, for which the “Steady-state desensitization (SSD)” value is listed as “does not -induce SSD”.

The record behind these values is paper PMC6769468, “Endogenous Neuropeptide Nocistatin Is a Direct Agonist of Acid-Sensing Ion Channels (ASIC1, ASIC2 and ASIC3)” (Biomolecules, 2019).
